Assay results reported in paper PMC11249646, “Small-Molecule Disruptors of the Interaction between Calcium- and Integrin-Binding Protein 1 and Integrin αIIbβ3 as Novel Antiplatelet Agents” (ACS Pharmacology & Translational Science, 2024).

Molecular target: T1, GST-CIB1 : F-scrambled peptide (Homo sapiens, UniProt Q99828)
T1 construct: made in house; host or cells: BL-21 plus RIL cells (E. coli)
T1 sequence (Q99828 1-191): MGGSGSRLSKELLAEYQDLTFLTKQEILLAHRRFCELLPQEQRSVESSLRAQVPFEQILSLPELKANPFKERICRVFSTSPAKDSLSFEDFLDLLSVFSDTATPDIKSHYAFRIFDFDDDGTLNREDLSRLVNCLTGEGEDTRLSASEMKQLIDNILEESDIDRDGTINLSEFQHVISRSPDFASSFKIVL
Assay: FP scrambled-peptide counter screen, 1536-well format
Assay type: binding
Conditions: Table S3, counterscreen, qHTS curve class; a negative sign marks inhibitory curves

| SMILES | Curve Class (counterscreen) |
| --- | --- |
| CO[C@@]12[C@H](COC(N)=O)C3=C(C(=O)C(C)=C(N)C3=O)N1C[C@@H]1N[C@@H]12 [NCGC00163468-05] | 3 |
| O=C1c2cccc(O)c2C(=O)c2c(O)cc(CO)cc21 [NCGC00163510-03] | 4 |

Now from value to compound:

| Curve Class (counterscreen) | SMILES |
| --- | --- |
| -3 | COC(=O)c1scc2c(O)cc(C(F)(F)F)nc12 [NCGC00168006-01] |
| -2.1 | COc1c(O)cccc1[C@H](O)C1CCN(CCc2ccc(F)cc2)CC1 [NCGC00168042-01] |
| -2.1 | CN1CCc2ccc3c4c2[C@]1(C)Cc1cccc(c1-4)OCO3 [NCGC00168048-01] |

Same assay, conditions: Table S3, counterscreen; negative = inhibition

| SMILES | Efficacy (%) (counterscreen) |
| --- | --- |
| CO[C@@]12[C@H](COC(N)=O)C3=C(C(=O)C(C)=C(N)C3=O)N1C[C@@H]1N[C@@H]12 [NCGC00163468-05] | 95 |
| O=C1c2cccc(O)c2C(=O)c2c(O)cc(CO)cc21 [NCGC00163510-03] | -8 |

Further lines, results first:

| Efficacy (%) (counterscreen) | SMILES |
| --- | --- |
| -67 | COC(=O)c1scc2c(O)cc(C(F)(F)F)nc12 [NCGC00168006-01] |
| -83 | COc1c(O)cccc1[C@H](O)C1CCN(CCc2ccc(F)cc2)CC1 [NCGC00168042-01] |
| -136 | CN1CCc2ccc3c4c2[C@]1(C)Cc1cccc(c1-4)OCO3 [NCGC00168048-01] |

Same assay, conditions: Table S3, counterscreen; read-out: IC50 [μM] (counterscreen)

| IC50 [µM] | SMILES |
| --- | --- |
| 39.8 | CO[C@@]12[C@H](COC(N)=O)C3=C(C(=O)C(C)=C(N)C3=O)N1C[C@@H]1N[C@@H]12 [NCGC00163468-05] |
| 79.4 | COC(=O)c1scc2c(O)cc(C(F)(F)F)nc12 [NCGC00168006-01] |
| 50.1 | COc1c(O)cccc1[C@H](O)C1CCN(CCc2ccc(F)cc2)CC1 [NCGC00168042-01] |
| 31.6 | CN1CCc2ccc3c4c2[C@]1(C)Cc1cccc(c1-4)OCO3 [NCGC00168048-01] |

Molecular target: T2, CIB1 and αIIb interaction (CIB1-GST : F-αIIb peptide) (Homo sapiens, UniProt Q99828)
T2 construct: made in house; host or cells: BL-21 plus RIL cells (E. coli)
T2 sequence (Q99828 1-191): T1 sequence (Q99828 1-191)
Assay: FP assay, 1536-well qHTS format (primary and confirmatory screen)
Assay type: binding
Conditions: Table S3, confirmatory screen, YES/NO call

| Confirm? (confirmatory screen) | SMILES |
| --- | --- |
| YES | COC(=O)c1scc2c(O)cc(C(F)(F)F)nc12 [NCGC00168006-01] |
| YES | COc1c(O)cccc1[C@H](O)C1CCN(CCc2ccc(F)cc2)CC1 [NCGC00168042-01] |
| YES | CN1CCc2ccc3c4c2[C@]1(C)Cc1cccc(c1-4)OCO3 [NCGC00168048-01] |

Same assay, conditions: Table S3, confirmatory screen, qHTS curve class; a negative sign marks inhibitory curves

| SMILES | Curve Class (confirmatory screen) |
| --- | --- |
| CO[C@@]12[C@H](COC(N)=O)C3=C(C(=O)C(C)=C(N)C3=O)N1C[C@@H]1N[C@@H]12 [NCGC00163468-05] | 4 |
| O=C1c2cccc(O)c2C(=O)c2c(O)cc(CO)cc21 [NCGC00163510-03] | 4 |

Continued, values first:

| Curve Class (confirmatory screen) | SMILES |
| --- | --- |
| -3 | COC(=O)c1scc2c(O)cc(C(F)(F)F)nc12 [NCGC00168006-01] |
| -2.4 | COc1c(O)cccc1[C@H](O)C1CCN(CCc2ccc(F)cc2)CC1 [NCGC00168042-01] |
| -2.1 | CN1CCc2ccc3c4c2[C@]1(C)Cc1cccc(c1-4)OCO3 [NCGC00168048-01] |

Same assay, conditions: Table S3, confirmatory screen; negative = inhibition

| SMILES | Efficacy (%) (confirmatory screen) |
| --- | --- |
| CO[C@@]12[C@H](COC(N)=O)C3=C(C(=O)C(C)=C(N)C3=O)N1C[C@@H]1N[C@@H]12 [NCGC00163468-05] | -31 |
| O=C1c2cccc(O)c2C(=O)c2c(O)cc(CO)cc21 [NCGC00163510-03] | -18 |

Results, then the compound that gave them:

| Efficacy (%) (confirmatory screen) | SMILES |
| --- | --- |
| -58 | COC(=O)c1scc2c(O)cc(C(F)(F)F)nc12 [NCGC00168006-01] |
| -89 | COc1c(O)cccc1[C@H](O)C1CCN(CCc2ccc(F)cc2)CC1 [NCGC00168042-01] |
| -118 | CN1CCc2ccc3c4c2[C@]1(C)Cc1cccc(c1-4)OCO3 [NCGC00168048-01] |

Same assay, conditions: Table S3, confirmatory screen; read-out: IC50 [μM] (confirmatory screen)

| IC50 [µM] | SMILES |
| --- | --- |
| 70.8 | COC(=O)c1scc2c(O)cc(C(F)(F)F)nc12 [NCGC00168006-01] |
| 50.1 | COc1c(O)cccc1[C@H](O)C1CCN(CCc2ccc(F)cc2)CC1 [NCGC00168042-01] |

Same assay, conditions: qHTS FP screen hits, Table S2; negative = inhibition

| SMILES | Efficacy (%) |
| --- | --- |
| O=C1c2cccc(O)c2C(=O)c2c(O)cc(CO)cc21 [NCGC00163510-03] | -33 |
| CN1CCc2ccc3c4c2[C@]1(C)Cc1cccc(c1-4)OCO3 [NCGC00168048-01] | -100 |

Same assay, conditions: qHTS FP screen hits, Table S2; one class per curve where COUNT > 1; negative sign = inhibitory curve

| SMILES | Curve Class |
| --- | --- |
| O=C1c2cccc(O)c2C(=O)c2c(O)cc(CO)cc21 [NCGC00163510-03] | -1.2 |
| CN1CCc2ccc3c4c2[C@]1(C)Cc1cccc(c1-4)OCO3 [NCGC00168048-01] | -2.1 |

Same assay, conditions: qHTS FP screen hits, Table S2; read-out: IC50

| SMILES | IC50 [µM] |
| --- | --- |
| O=C1c2cccc(O)c2C(=O)c2c(O)cc(CO)cc21 [NCGC00163510-03] | 9.6 |
| CN1CCc2ccc3c4c2[C@]1(C)Cc1cccc(c1-4)OCO3 [NCGC00168048-01] | 39.8 |

Same assay, conditions: qHTS primary screen hits, Table S2; negative = inhibition

| Efficacy (%) | SMILES |
| --- | --- |
| -38 | CO[C@@]12[C@H](COC(N)=O)C3=C(C(=O)C(C)=C(N)C3=O)N1C[C@@H]1N[C@@H]12 [NCGC00163468-05] |
| -56 | COC(=O)c1scc2c(O)cc(C(F)(F)F)nc12 [NCGC00168006-01] |

Same assay, conditions: qHTS primary screen hits, Table S2; negative sign = inhibitory curve; several classes where COUNT > 1

| Curve Class | SMILES |
| --- | --- |
| -1.2 | CO[C@@]12[C@H](COC(N)=O)C3=C(C(=O)C(C)=C(N)C3=O)N1C[C@@H]1N[C@@H]12 [NCGC00163468-05] |
| -2.2 | COC(=O)c1scc2c(O)cc(C(F)(F)F)nc12 [NCGC00168006-01] |

Same assay, conditions: qHTS primary screen hits, Table S2; read-out: IC50

| IC50 [µM] | SMILES |
| --- | --- |
| 25.1 | CO[C@@]12[C@H](COC(N)=O)C3=C(C(=O)C(C)=C(N)C3=O)N1C[C@@H]1N[C@@H]12 [NCGC00163468-05] |
| 50.1 | COC(=O)c1scc2c(O)cc(C(F)(F)F)nc12 [NCGC00168006-01] |
